Experimental data: PMC12209991 (Clinical Pharmacology in Drug Development, 2025)
Like-named read-outs stand apart in the source and are kept apart here.

Experiments:
CYP3A4 [1] = experiment: clinical; settings: human, in vivo, po; for AUC(0-inf): AUCinf; for AUC(0-inf) / AUC(0-t) / Cmax: N=12; for AUC(0-t): AUClast
CYP3A4 [2] = test system: CYP3A4
[3] = 2 mg, GLSM, midazolam 2 mg single oral dose without RBN-3143 (day 1)
[4] = 2 mg, geometric mean (Geo CV%), midazolam 2 mg single oral dose without RBN-3143 (day 1)
[5] = 2 mg, mean (SD), midazolam 2 mg single oral dose without RBN-3143 (day 1)
[6] = GLSM, midazolam 2 mg single oral dose with RBN-3143 300 mg BID at steady state (day 16)
[7] = geometric mean (Geo CV%), midazolam 2 mg single oral dose with RBN-3143 300 mg BID at steady state (day 16)
[8] = mean (SD), midazolam 2 mg single oral dose with RBN-3143 300 mg BID at steady state (day 16)
[9] = midazolam with RBN-3143 / without RBN-3143 (300 mg BID for 14 days)
[10] = midazolam with RBN-3143 / without RBN-3143 (300 mg BID for 14 days), listed as midazolam

Cc1ncc2n1-c1ccc(Cl)cc1C(c1ccccc1F)=NC2 [Midazolam, midazolam]
AUC(0-inf) (CYP3A4 [1]; [3]): 20.8 ng·h/mL
AUC(0-inf) (CYP3A4 [1]; [4]): 20.8 ng·h/mL
AUC(0-inf) (CYP3A4 [1]; [5]): 22.2 ng·h/mL
AUC(0-t) (CYP3A4 [1]; [3]): 19.8 ng·h/mL
AUC(0-t) (CYP3A4 [1]; [4]): 19.8 ng·h/mL
AUC(0-t) (CYP3A4 [1]; [5]): 21.2 ng·h/mL
Cmax (CYP3A4 [1]; [3]): 9.88 ng/mL
Cmax (CYP3A4 [1]; [4]): 9.87 ng/mL
Cmax (CYP3A4 [1]; [5]): 10.3 ng/mL
half-life (CYP3A4 [1]; 2 mg, t1/2, geometric mean (Geo CV%), midazolam 2 mg single oral dose without RBN-3143 (day 1)): 3.05 h
half-life (CYP3A4 [1]; 2 mg, t1/2, mean (SD), midazolam 2 mg single oral dose without RBN-3143 (day 1)): 3.29 h
AUC(0-inf) (CYP3A4 [1]; [6]): 18.3 ng·h/mL
AUC(0-inf) (CYP3A4 [1]; [7]): 18.3 ng·h/mL
AUC(0-inf) (CYP3A4 [1]; [8]): 19.9 ng·h/mL
AUC(0-t) (CYP3A4 [1]; [6]): 17.2 ng·h/mL
AUC(0-t) (CYP3A4 [1]; [7]): 17.2 ng·h/mL
AUC(0-t) (CYP3A4 [1]; [8]): 18.6 ng·h/mL
Cmax (CYP3A4 [1]; [6]): 9.11 ng/mL
Cmax (CYP3A4 [1]; [7]): 9.11 ng/mL
Cmax (CYP3A4 [1]; [8]): 9.76 ng/mL
half-life (CYP3A4 [1]; t1/2, geometric mean (Geo CV%), midazolam 2 mg single oral dose with RBN-3143 300 mg BID at steady state (day 16)): 3.09 h
half-life (CYP3A4 [1]; t1/2, mean (SD), midazolam 2 mg single oral dose with RBN-3143 300 mg BID at steady state (day 16)): 3.49 h
subjects with decreased exposure to oral midazolam (CYP3A4 [2]; after RBN-3143 300 mg BID to steady-state): 9/12
increase of midazolam Cmax in 1 subject against the trend (CYP3A4 [2]; in the presence of RBN-3143): 3 fold
subjects showing increased midazolam AUCinf (CYP3A4 [2]; in the presence of RBN-3143): 3 subjects out of 12
subjects showing increased midazolam Cmax (CYP3A4 [2]; in the presence of RBN-3143): 2 subjects out of 12
AUCinf GLSM ratio (90% CI) (CYP3A4 [2]; [9]): … … 0.88 (0.76, 1.01)
AUClast GLSM ratio (90% CI) (CYP3A4 [2]; [9]): … … 0.87 (0.75, 1.01)
Cmax GLSM ratio (90% CI) (CYP3A4 [2]; [9]): … … 0.92 (0.74, 1.16)
AUCinf GLSM ratio (90% CI) (CYP3A4 [2]; [10]): 0.88
Cmax GLSM ratio (90% CI) (CYP3A4 [2]; [10]): 0.92
